Laboratory results from patent US12310975B2, “Modulators of BCL6 proteolysis and associated methods of use” (Arvinas Operations, Inc., priority 2019, dated 2025).
Where two headings read alike, the source gives them in different places.

Biological target: BCL6 (Homo sapiens (Human), UniProt P41182)
Assay: Immunofluorescence high content imaging of BCL6 degradation in T47D cells
Format: cell-based
Settings: for DC50: class symbols A-D, read-out: EC50 (nM)*
In short: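 Seed T47D in RPMI1640-10% FBS to reach ~70-90% confluence at endpoint; add degrader next day (11-point 3-fold series, top 0.1 or 1 μM final) for 3 days. Then fix, permeabilize, stain BCL6 with nuclear Hoechst, and image.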

Row | Compound | Dmax (T47D cells) [%] | IC50 (T47D cells) [nM] | also measured
1 | CN(C)C(=O)COc1cc2cc(Nc3nc(N4CCC(OCCOCCOCCOCCOCCOc5ccc6c(c5)CN(C5CCC(=O)NC5=O)C6=O)CC4)ncc3Cl)ccc2n(C)c1=O (centres unmarked) [compound 99, 2-((6-((5-chloro-2-(4-((14-((2-(2,6-dioxopiperidin-3-yl)-1-oxoisoindolin-5-yl)oxy)-3,6,9,12-tetraoxatetradecyl)oxy)piperidin-1-yl)pyrimidin-4-yl)amino)-1-methyl-2-oxo-1,2-dihydroquinolin-3-yl)oxy)-N,N-dimethylacetamide] | – | – | DC50: > 100 nM
2 | CNC(=O)COc1cc2cc(Nc3nc(N4CCC(CN5CCC6(CC5)CN(c5cccc7c5C(=O)N(C5CCC(=O)NC5=O)C7=O)C6)CC4)ncc3Cl)ccc2n(C(C)C)c1=O (centres unmarked) [compound 418, 2-{[6-({5-chloro-2-[4-({2-[2-(2,6-dioxopiperidin-3-yl)-1,3-dioxo-2,3-dihydro-1H-isoindol-4-yl]-2,7-diazaspiro[3.5]nonan-7-yl}methyl)piperidin-1-yl]pyrimidin-4-yl}amino)-2-oxo-1-(propan-2-yl)-1,2-dihydroquinolin-3-yl]oxy}-N-methylacetamide] | ≥ 70 | < 10 | –
3 | CNC(=O)COc1cc2cc(Nc3nc(N4CCO[C@H](COc5ccc(C(=O)NC6CCC(=O)NC6=O)cc5)C4)ncc3Cl)ccc2n(C(C)C)c1=O (stereo partly drawn) [compound 348, 4-{[(2S)-4-[5-chloro-4-({3-[(methylcarbamoyl)methoxy]-2-oxo-1-(propan-2-yl)-1,2-dihydroquinolin-6-yl}amino)pyrimidin-2-yl]morpholin-2-yl]methoxy}-N-(2,6-dioxopiperidin-3-yl)benzamide] | < 50 | 10 to 50 | –
4 | CNC(=O)COc1cc2cc(Nc3nc(N4CCN(CC5CCN(c6ccc(C(=O)NC7CCC(=O)NC7=O)c(OC)c6)CC5)CC4)ncc3Cl)ccc2n(C)c1=O (centres unmarked) [compound 243, 4-(4-((4-(5-chloro-4-((1-methyl-3-(2-(methylamino)-2-oxoethoxy)-2-oxo-1,2-dihydroquinolin-6-yl)amino)pyrimidin-2-yl)piperazin-1-yl)methyl)piperidin-1-yl)-N-(2,6-dioxopiperidin-3-yl)-2-methoxybenzamide] | – | – | IC50: < 10 nM; Dmax (T47D): ≥ 70%
5 | CCn1c(=O)c(OCC(=O)NC)cc2cc(Nc3nc(N4CCC(CN5CCC(c6ccc7c(c6)C(=O)N(C6CCC(=O)NC6=O)C7=O)CC5)CC4)ncc3Cl)ccc21 (centres unmarked) [compound 364, 2-{[6-({5-chloro-2-[4-({4-[2-(2,6-dioxopiperidin-3-yl)-1,3-dioxo-2,3-dihydro-1H-isoindol-5-yl]piperidin-1-yl}methyl)piperidin-1-yl]pyrimidin-4-yl}amino)-1-ethyl-2-oxo-1,2-dihydroquinolin-3-yl]oxy}-N-methylacetamide] | ≥ 70 | 10 to 50 | –
6 | CNC(=O)COc1cc2cc(Nc3nc(N4CCN(CC5CCN(c6ccc(C(=O)NC7CCC(=O)NC7=O)[n+]([O-])c6)CC5)CC4)ncc3Cl)ccc2n(C)c1=O (centres unmarked) [compound 377, 5-[4-({4-[5-chloro-4-({1-methyl-3-[(methylcarbamoyl)methoxy]-2-oxo-1,2-dihydroquinolin-6-yl}amino)pyrimidin-2-yl]piperazin-1-yl}methyl)piperidin-1-yl]-2-[(2,6-dioxopiperidin-3-yl)carbamoyl]pyridin-1-ium-1-olate] | – | ≥ 100 | –
7 | CNC(=O)COc1cc2cc(Nc3nc(N4CCC(CCOC5CN(c6ccc7c(c6)C(=O)N(C6CCC(=O)NC6=O)C7=O)C5)CC4)ncc3Cl)ccc2n(C)c1=O (centres unmarked) [compound 247, 2-((6-((5-chloro-2-(4-(2-((1-(2-(2,6-dioxopiperidin-3-yl)-1,3-dioxoisoindolin-5-yl)azetidin-3-yl)oxy)ethyl)piperidin-1-yl)pyrimidin-4-yl)amino)-1-methyl-2-oxo-1,2-dihydroquinolin-3-yl)oxy)-N-methylacetamide] | – | – | IC50: < 10 nM; Dmax (T47D): 50 to 70%
8 | CCn1c(=O)c(OCC(=O)NC)cc2cc(Nc3nc(N4CCN(C(C)(C)C5CCN(c6ccc7c(c6)C(=O)N(C6CCC(=O)NC6=O)C7=O)CC5)CC4)ncc3Cl)ccc21 (centres unmarked) [compound 304, 2-{[6-({5-chloro-2-[4-(2-{1-[2-(2,6-dioxopiperidin-3-yl)-1,3-dioxo-2,3-dihydro-1H-isoindol-5-yl]piperidin-4-yl}propan-2-yl)piperazin-1-yl]pyrimidin-4-yl}amino)-1-ethyl-2-oxo-1,2-dihydroquinolin-3-yl]oxy}-N-methylacetamide] | – | – | IC50: < 10 nM; Dmax (T47D): ≥ 70%
9 | CNC(=O)COc1cc2cc(Nc3nc(N4CCN(CC5CCN(c6cc(F)c(C(=O)NC7CCC(=O)NC7=O)c(OC)c6)CC5)CC4)ncc3Cl)ccc2n(C)c1=O (centres unmarked) [compound 354, 4-[4-({4-[5-chloro-4-({1-methyl-3-[(methylcarbamoyl)methoxy]-2-oxo-1,2-dihydroquinolin-6-yl}amino)pyrimidin-2-yl]piperazin-1-yl}methyl)piperidin-1-yl]-N-(2,6-dioxopiperidin-3-yl)-2-fluoro-6-methoxybenzamide] | 50 to 70 | < 10 | –
10 | CNC(=O)COc1cc2cc(Nc3nc(N4C[C@@H](COc5ccc6c(c5)C(=O)N(C5CCC(=O)NC5=O)C6=O)O[C@H](C)C4)ncc3Cl)ccc2n(C(C)C)c1=O (stereo partly drawn) [compound 382, 2-{[6-({5-chloro-2-[(2S,6R)-2-({[2-(2,6-dioxopiperidin-3-yl)-1,3-dioxo-2,3-dihydro-1H-isoindol-5-yl]oxy}methyl)-6-methylmorpholin-4-yl]pyrimidin-4-yl}amino)-2-oxo-1-(propan-2-yl)-1,2-dihydroquinolin-3-yl]oxy}-N-methylacetamide] | 50 to 70 | 50 to 100 | –
11 | CNC(=O)COc1cc2cc(Nc3nc(N4CCC(OCc5ccccc5OCCCCOCCOCCOc5ccc6c(c5)CN(C5CCC(=O)NC5=O)C6=O)CC4)ncc3Cl)ccc2n(C)c1=O (centres unmarked) [compound 136, 2-((6-((5-chloro-2-(4-((2-(4-(2-(2-((2-(2,6-dioxopiperidin-3-yl)-1-oxoisoindolin-5-yl)oxy)ethoxy)ethoxy)butoxy)benzyl)oxy)piperidin-1-yl)pyrimidin-4-yl)amino)-1-methyl-2-oxo-1,2-dihydroquinolin-3-yl)oxy)-N-methylacetamide] | – | – | DC50: > 100 nM
12 | CNC(=O)COc1cc2cc(Nc3nc(N4CCN(CC5CCN(c6cc(OC)cc7c6C(=O)N(C6CCC(=O)NC6=O)C7=O)CC5)CC4)ncc3Cl)ccc2n(C(C)C)c1=O (centres unmarked) [compound 414, 2-{[6-({5-chloro-2-[4-({1-[2-(2,6-dioxopiperidin-3-yl)-6-methoxy-1,3-dioxo-2,3-dihydro-1H-isoindol-4-yl]piperidin-4-yl}methyl)piperazin-1-yl]pyrimidin-4-yl}amino)-2-oxo-1-(propan-2-yl)-1,2-dihydroquinolin-3-yl]oxy}-N-methylacetamide] | ≥ 70 | – | –
13 | CNC(=O)COc1cc2cc(Nc3nc(N4CCN(CC5CCN(c6cnc(C(=O)NC7CCC(=O)NC7=O)c(OC)c6)CC5)CC4)ncc3Cl)ccc2n(C)c1=O (centres unmarked) [compound 359, 5-[4-({4-[5-chloro-4-({1-methyl-3-[(methylcarbamoyl)methoxy]-2-oxo-1,2-dihydroquinolin-6-yl}amino)pyrimidin-2-yl]piperazin-1-yl}methyl)piperidin-1-yl]-N-(2,6-dioxopiperidin-3-yl)-3-methoxypyridine-2-carboxamide] | 50 to 70 | 10 to 50 | –
14 | CNC(=O)CNc1cc2cc(Nc3nc(N4CCN(CC5CCN(c6ccc7c(c6)C(=O)N(C6CCC(=O)NC6=O)C7=O)CC5)CC4)ncc3Cl)ccc2n(C)c1=O (centres unmarked) [compound 262, 2-((6-((5-chloro-2-(4-((1-(2-(2,6-dioxopiperidin-3-yl)-1,3-dioxoisoindolin-5-yl)piperidin-4-yl)methyl)piperazin-1-yl)pyrimidin-4-yl)amino)-1-methyl-2-oxo-1,2-dihydroquinolin-3-yl)amino)-N-methylacetamide] | – | – | IC50: < 10 nM; Dmax (T47D): ≥ 70%
15 | CNC(=O)COc1cc2cc(Nc3nc(N4CCC(OCCCOCCCOc5cc(-c6scnc6C)ccc5CNC(=O)[C@@H]5C[C@@H](O)CN5C(=O)C(c5cc(C)no5)C(C)C)CC4)ncc3Cl)ccc2n(C)c1=O (stereo partly drawn) [compound 144, (2S,4R)-N-(2-(3-(3-((1-(5-chloro-4-((1-methyl-3-(2-(methylamino)-2-oxoethoxy)-2-oxo-1,2-dihydroquinolin-6-yl)amino)pyrimidin-2-yl)piperidin-4-yl)oxy)propoxy)propoxy)-4-(4-methylthiazol-5-yl)benzyl)-4-hydroxy-1-(3-methyl-2-(3-methylisoxazol-5-yl)butanoyl)pyrrolidine-2-carboxamide] | – | – | DC50: > 100 nM
16 | CCCC(C1CCN(c2ccc3c(c2)C(=O)N(C2CCC(=O)NC2=O)C3=O)CC1)N1CCN(c2ncc(Cl)c(Nc3ccc4c(c3)cc(OCC(=O)NC)c(=O)n4C)n2)CC1 (centres unmarked) [compound 338, 2-{[6-({5-chloro-2-[4-(1-{1-[2-(2,6-dioxopiperidin-3-yl)-1,3-dioxo-2,3-dihydro-1H-isoindol-5-yl]piperidin-4-yl}butyl)piperazin-1-yl]pyrimidin-4-yl}amino)-1-methyl-2-oxo-1,2-dihydroquinolin-3-yl]oxy}-N-methylacetamide] | < 50 | < 10 | –
17 | CNC(=O)COc1cc2cc(Nc3nc(N4CCC(OCCOCCCOCCCOc5ccc6c(c5)CN(C5CCC(=O)NC5=O)C6=O)CC4)ncc3Cl)ccc2n(C)c1=O (centres unmarked) [compound 147, 2-((6-((5-chloro-2-(4-(2-(3-(3-((2-(2,6-dioxopiperidin-3-yl)-1-oxoisoindolin-5-yl)oxy)propoxy)propoxy)ethoxy)piperidin-1-yl)pyrimidin-4-yl)amino)-1-methyl-2-oxo-1,2-dihydroquinolin-3-yl)oxy)-N-methylacetamide] | – | – | DC50: > 100 nM
18 | CNC(=O)COc1cc2cc(Nc3nc(N4CCC(OCCOCCOCCOCCCOc5ccccc5-c5ccc6c(c5)CN(C5CCC(=O)NC5=O)C6=O)CC4)ncc3Cl)ccc2n(C)c1=O (centres unmarked) [compound 93, 2-((6-((5-chloro-2-(4-(2-(2-(2-(3-(2-(2-(2,6-dioxopiperidin-3-yl)-1-oxoisoindolin-5-yl)phenoxy)propoxy)ethoxy)ethoxy)ethoxy)piperidin-1-yl)pyrimidin-4-yl)amino)-1-methyl-2-oxo-1,2-dihydroquinolin-3-yl)oxy)-N-methylacetamide] | – | – | DC50: > 100 nM
